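In this assay, cells in 96-well plates receive the compound at five concentrations for 48 hours. Endpoints are linearly interpolated between the surrounding concentrations. Here, GI50 denotes the concentration required for 50% inhibition of growth. TGI marks complete inhibition of growth.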
Assays:
Experiment in all cases: NCI-60 cell line screen, 48 h
[1] = test system: BT-549 breast
[2] = test system: SF-295 CNS
[3] = test system: 786-0 renal
[4] = test system: LOX IMVI melanoma
[5] = test system: SK-OV-3 ovarian
[6] = test system: COLO 205 colon
[7] = test system: CAKI-1 renal
[8] = test system: SNB-75 CNS
[9] = test system: SF-539 CNS
[10] = test system: HS 578T breast

SMILES | GI50 [1] [µM] | TGI [1] [µM] | GI50 [2] [µM] | TGI [2] [µM] | GI50 [3] [µM] | TGI [3] [µM] | GI50 [4] [µM] | TGI [4] [µM] | GI50 [5] [µM] | TGI [5] [µM] | GI50 [6] [µM] | TGI [6] [µM] | GI50 [7] [µM] | TGI [7] [µM] | GI50 [8] [µM] | TGI [8] [µM] | GI50 [9] [µM] | TGI [9] [µM] | GI50 [10] [µM] | TGI [10] [µM]
Cc1ccc2nc(-c3ccc(OCC(=O)N=Nc4c(O)[nH]c5ccccc45)cc3)[nH]c2c1 | 45.1 | > 100 | 19.4 | 49.7 | 2.06 | 4.38 | 1.83 | 3.52 | 17.5 | 37 | 4.03 | > 100 | 2.8 | 10.2 | 13 | 38.5 | 3.51 | 13.9 | 11.4 | 42.3
Cc1cc(Nc2nc(C(=O)Nc3ccccc3)nc3ccccc23)n[nH]1 | 15.7 | > 25 | 7.82 | > 25 | 10.1 | > 25 | 4.47 | > 25 | 12.8 | > 25 | 14.4 | > 25 | 1.87 | > 25 | 6.8 | > 25 | > 25 | > 25 | 7.68 | > 25
COc1cccc(CN(C)c2ccc(CO)c(Cl)c2)c1 | 19.8 | 80 | 3.71 | > 66.2 | 13.9 | > 67.6 | 34.7 | > 100 | 11.3 | > 60.7 | 3.18 | 11.7 | 2.82 | > 59.3 | 22.2 | 98.4 | 48 | > 100 | 43.6 | > 100
CNNC(=N\S(=O)(=O)c1cc(C)c(Cl)cc1SCc1ccccc1)/N=C/c1ccc([N+](=O)[O-])s1 | > 100 | > 100 | > 87.7 | > 100 | > 100 | > 100 | > 77.2 | > 100 | > 100 | > 100 | 0.776 |  | > 100 | > 100 | > 100 | > 100 | > 100 | > 100 | > 100 | > 100
C=C1C(=O)O[C@H]2[C@H]1CC/C(COC(=O)NCc1ccc(OC)cc1)=C\CC[C@@]1(C)O[C@@H]21 | 0.696 | 2.07 | 11.1 | 25 | 0.7 | 1.67 | 0.405 | 1.47 | 14.6 | 29.3 | 0.656 | 1.55 | 0.628 | 2.08 | 1 | 15.3 | 0.973 | 3.65 | 3.1 | 30.7
COc1ccc(NC(=O)/C=C(C)/C=C/C=C(C)/C=C/C2=C(C)CCCC2(C)C)cc1 | 27.2 | 43.3 | 13.3 | 27.2 | 14.4 | 28.7 | 2.93 | 10.6 | 17 | 30.7 | 3.52 | 10.9 | 3.28 | 14.4 | 4.5 | 18.5 | 2.59 | 6.15 | 9.42 | 39.8
COC(=O)C(CCC(=O)CCl)N1C(=O)c2ccccc2C1=O (centres undefined) |  | 21.8 |  | 35.2 |  | 15.2 |  | 4.02 |  | 31.5 |  | 40.3 |  | 26.7 |  | 29.3 |  | 22 |  | 32.4
COC(=O)c1cc2c(cc1Cl)SC1=NN(C)S(=O)N1S2(=O)=O (centres undefined) | > 100 | > 100 | > 100 | > 100 | > 100 | > 100 | > 100 | > 100 | > 100 | > 100 | > 100 | > 100 | > 100 | > 100 | 85.9 | > 100 | > 100 | > 100 | > 100 | > 100
CN(C)c1ccc(/C=C2\N=C(c3ccccc3)N(c3cc(C(F)(F)F)ccc3Cl)C2=O)cc1 | > 100 | > 100 | > 100 | > 100 | > 100 | > 100 | > 100 | > 100 | > 100 | > 100 | > 100 | > 100 | > 100 | > 100 | > 100 | > 100 | > 100 | > 100 | > 100 | > 100
O=C(Nc1ccc(F)cc1F)c1cc(Cl)ccc1O | 0.62 | 3.31 | 1.56 | 3.16 | 2.71 | 7.69 | 1.73 | 12.6 | 0.722 | 4.85 | 7.79 | 22.5 | 1.31 | 5.51 | 1.09 | 3.79 | 1.01 | 9.9 | 0.978 | 7.25
CCOc1ccc2c(c1)C(=O)c1c-2n(CCCBr)c(=O)c2cc([N+](=O)[O-])ccc12 | 28.8 | > 100 | 12.3 | > 100 | 13.6 | > 100 | 5.38 | > 100 | 17.6 | > 100 | 41.3 | > 100 | 8.15 | > 100 | 33.9 | > 100 | 5.57 | 40.9 | > 100 | > 100

— PubChem BioAssay (NCI)
